Assay results: PubChem BioAssay (NCI)
Values joined by “and” are separate entries in the source; they are usually repeats but may differ in a detail not shown here. Equal values may be shown once.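 Step 1: Grow cells in 96-well plates. Step 2: Expose to compound for 48 hours at 5 concentrations. Step 3: Interpolate endpoints linearly; if unreached, use highest concentration. GI50: concentration for 50% inhibition of growth. The concentration for full growth arrest is given as TGI.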

Key:
Assay in all cases: NCI-60 cell line screen, 48 h
MOLT-4 leukemia = tested on: MOLT-4 leukemia
SK-MEL-28 melanoma = tested on: SK-MEL-28 melanoma
OVCAR-3 ovarian = tested on: OVCAR-3 ovarian
LOX IMVI melanoma = tested on: LOX IMVI melanoma
OVCAR-4 ovarian = tested on: OVCAR-4 ovarian
OVCAR-5 ovarian = tested on: OVCAR-5 ovarian
ACHN renal = tested on: ACHN renal
COLO 205 colon = tested on: COLO 205 colon
SF-295 CNS = tested on: SF-295 CNS
RPMI-8226 leukemia = tested on: RPMI-8226 leukemia

Row | Compound | GI50 (MOLT-4 leukemia) | TGI (MOLT-4 leukemia) | GI50 (SK-MEL-28 melanoma) [µM] | TGI (SK-MEL-28 melanoma) [µM] | GI50 (OVCAR-3 ovarian) [µM] | TGI (OVCAR-3 ovarian) [µM] | GI50 (LOX IMVI melanoma) [µM] | TGI (LOX IMVI melanoma) | GI50 (OVCAR-4 ovarian) [µM] | TGI (OVCAR-4 ovarian) [µM] | GI50 (OVCAR-5 ovarian) | TGI (OVCAR-5 ovarian) [µM] | GI50 (ACHN renal) [µM] | TGI (ACHN renal) [µM] | GI50 (COLO 205 colon) [µM] | TGI (COLO 205 colon) | GI50 (SF-295 CNS) [µM] | TGI (SF-295 CNS) [µM] | GI50 (RPMI-8226 leukemia) [µM] | TGI (RPMI-8226 leukemia) [µM]
1 | CC(C)=CC(=O)N[C@@H]1CC2CCC3C(CC[C@@]4(C)C3CC[C@@H]4C(C)N(C)C)[C@@]2(C)C[C@@H]1O (some centres undefined) | 2.5 µM | 14 µM | 1.91 | 3.89 | 5.14 | 21.9 | 1.54 | 3.97 µM | 4.32 | > 62 | 10.6 µM | 38.2 | 6.36 | 32.6 | 1.79 | 3.71 µM | 3.45 | 16.6 | 2.51 | 18.5
2 | ClC1c2ccccc2C2(c3ccccc3)OOC1(c1ccccc1)O2 (centres undefined) | – | 3.56 µM | – | 3.8 | – | 3.3 | – | 1.31 µM | – | 3.08 | – | 11.2 | – | 2.89 | – | 4.58 µM | – | 5.85 | – | 3.17
3 | N#Cc1cc([N+](=O)[O-])ccc1NC(=O)C(=O)C(C(=O)c1ccc2ccccc2c1)C1OCc2ccccc21 (centres undefined) | – | 21.8 µM | – | 21.4 | – | > 47.6 | – | 29.5 µM | – | > 55.2 | – | 29.2 | – | > 71.1 | – | 27.8 µM | – | 23.9 | – | > 66.6
4 | CCOC(=O)c1ccccc1SC(C[N+](=O)[O-])c1ccccc1 (centres undefined) | 4.54 µM | 30.6 µM | 1.91 | 3.74 | 10.4 | 22.4 | 1.81 | 3.51 µM | 12.9 | 25.5 | 12.3 µM | 25.3 | 2.02 | 4.51 | 3.6 | 13 µM | 18.3 | 34.6 | 2.44 | 5.53
5 | COc1ccc(-c2nc(-c3ccccn3)c(-c3ccccn3)n2CC(C)C)cc1OC1CCCC1 | 18 µM | 61.6 µM | 38.7 | 159 | 30.3 | 114 | 26.1 | 110 µM | 32.3 | 126 | 26.5 µM | > 165 | 6.92 | > 165 | 52.2 | > 165 µM | 9.56 | 106 | 27.4 | 80.5
6 | CN(C)CC1CCCCCC(Br)C1=O (centres undefined) | – | 2.83 µM | – | 34 | – | 21.6 | – | 29.8 µM | – | 33.6 | – | > 52.2 | – | 19.6 | – | 31.6 µM | – | > 100 | – | 3.96
7 | O=C(Cc1ccc(Nc2ccnc(C(F)(F)F)c2)cc1)Nc1cc(Cl)ccc1O | 1.73 µM | 5.39 µM | 6.06 | 18.7 | 3.37 | 13.6 | 6.46 | 28.5 µM | 9.48 | 84.2 | 17.8 µM | 52.1 | 4.44 | 44.2 | 21.7 | 55.4 µM | 3.06 | 11.9 | 1.25 | 4.1
8 | O=C(Oc1ccccc1Cl)c1ccccc1Nc1cccc(C(F)(F)F)c1 | 3.89 µM | 14.6 µM | 38.5 | > 100 | 15.4 | 32.9 | 11.9 | 33.5 µM | 62.7 | > 100 | 30.6 µM | 94.7 | 40.3 | > 100 | 28 | > 100 µM | 24.8 | 54.3 | 18.4 | 54.2
9 | COc1ccc(OC(C)C(=O)O)c2c1CCCC2=O (centres undefined) | – | > 100 µM | – | > 100 | – | > 100 | – | > 100 µM | – | > 100 | – | > 100 | – | > 100 | – | > 100 µM | – | > 100 | – | > 100
10 | CC#CC#C/C=C1\C=CC2(OC=CC2OC(C)=O)O1 (centres undefined) | 6.9 µM and 17.8 µM | 64.6 µM and 53.2 µM | 43.5 | > 100 | – | 74.4 | – | > 100 µM and 31.7 µM | 29.1 | > 100 | 30.6 µM and 9.87 µM | > 100 | – | 33.9 | – | 28.2 µM and 33.3 µM | – | > 100 | – | > 100
11 | CC[C@H](C)[C@H](NC(=O)NC(C)(C)C)C(=O)N(C)[C@H](C[C@@H](OC(C)=O)c1nc(C(=O)N[C@@H](Cc2ccccc2)C[C@H](C)C(=O)OC)cs1)C(C)C | 0.853 µM | > 25 µM | 2.97 | > 25 | 0.158 | 0.964 | 0.768 | > 25 µM | 1.21 | > 25 | 2.4 µM | > 25 | 1.15 | > 25 | 0.446 | 1.12 µM | 0.485 | 1.83 | 0.263 | 4.2
12 | Cc1cn([C@H]2C[C@H](O)[C@@H](CO)O2)c(=O)nc1N | – | > 100 µM | – | > 100 | – | > 100 | – | > 100 µM | – | > 100 | – | > 100 | – | > 100 | – | > 100 µM | – | > 100 | – | > 100
13 | O=C1NC(=O)[C@@H](c2c[nH]c3ccccc23)[C@@H]1c1c[nH]c2ccccc12 | > 25 µM | > 25 µM | > 25 | > 25 | > 25 | > 25 | > 25 | > 25 µM | > 25 | > 25 | > 25 µM | > 25 | > 25 | > 25 | > 25 | > 25 µM | > 25 | > 25 | > 25 | > 25
14 | CCOC(=O)Cn1c(-c2nonc2NC(=O)c2ccccc2F)nc2ccccc21 | 0.451 µM | > 100 µM | 17.9 | > 100 | 7.07 | > 100 | 0.309 | > 100 µM | 11.8 | > 100 | 26.3 µM | > 100 | 5.05 | > 100 | > 35.6 | > 100 µM | 2.77 | > 55.2 | 7.5 | > 100
